Assay results as given in patent US20240298636A1, “ANTIMICROBIAL AGENTS AND FILMS MADE THEREFROM” (YISSUM RESEARCH DEVELOPMENT COMPANY OF THE HEBREW …, priority 2021, published 2024).

Assay: QCM-D analysis of peptide adsorption and Cu binding
Assay type: physicochemical
Details: for loaded mass/area of the peptide: 1.5 mg/mL in Tris buffer pH 8.5, after washing, Sauerbrey equation, 5th overtones
Experimental: Quartz Crystal Microbalance with Dissipation (QCM-D) Analysis: The peptides' adsorption and the metal-binding capabilities were studied using QCM-D (Q-sense, Biolin Scientific). The measurements were performed in a flow module E1 system with SiO2 sensors with a fundamental resonant frequency of 5 MHz (Qsense). The sensors were cleaned according to the supplier instructions. The experiments were performed under flow-through conditions using a digital peristaltic pump (IsmaTec Peristaltic Pump, IDEX). The peptide (1.5 mg/mL), control peptide (1.5 mg/mL), and CuCl2 (0.8 mg/mL) were dissolved in a filtered Tris buffer solution (pH=8.5, 10 mM). The solutions were injected circularly into the sensor crystal chamber at a rate of 0.1 mL/min. The peptide solution flowed for -4 h, the control peptide for −80 min, and the CuCl2 solution for -2 h. Between and after the coatings, the sensor was washed with the same Tris buffer solution. The adsorbed mass was calculated according to the Sauerbrey equation using the 5th overtones.

| Substance | loaded mass/area of the peptide [ng/cm^2] | loaded mass/area of Cu bound to the peptide layer (Cu(II) solution (CuCl2 0.8 mg/mL) after washing with the buffer) [ng/cm^2] | ratio of Cu ions per each peptide molecule (from loaded mass/area values) |
| --- | --- | --- | --- |
| NH2-(Phe)2-(His)6-OH [reference compound] | ~12 | – | – |
| NH2-DOPA-(Phe)2-(His)6-OH [peptide] | ~96 | ~9 | ~2 |
